Data published in US20260325465A1, “SHP-1 INHIBITORS FOR TREATING CANCER” (MDX MANAGEMENT LLC, priority 2022, published 2026).

Tests used:
[1] = tested on: PTP activity in macrophages; experiment: PTP activity in macrophages co-cultured with cancer cells and stimulated with IFNγ/LPS or TLR agonists; type: cell-based; parameters: concentration or dose not given beside the values; details: induced by IFNγ/LPS or TLR agonists, with cancer cell ligation, 30 min, 37 °C
Description: FIGS. 3A-3E depict modulation of SHP-1 activity in proinflammatory macrophages in cancer. Macrophages co-cultured with cancer cells were stimulated with IFNγ/LPS or TLR agonists (αTLR) comprising CpG, polycytidylic acid (i.e., PolyI:C) and R848 (each 0.4 μg/ml) for 30 min (37 °C) in the presence or the absence of different SHP-1 or SHP-2 inhibitor or activator, followed by cell lysis and assays of PTP activity. FIG. 3A depicts SHP-1 activity regulation mechanisms. […] FIG. 3E depicts that PKCθ negatively regulates SHP-1 activity at a moderate level.

[2] = tested on: EL4, B16, MC38, Pan01, KPC and LLC cancer cells; experiment: Phagocytosis by murine bone marrow-derived macrophages; type: cell-based; details: 1 μg/ml
Description: FIGS. 2A-2G depict that the inhibition of SHP-1 enhances macrophage proinflammatory response, antigen presentation and phagocytosis in a tumor milieu. FIG. 2A and FIG. 2B depict that SHP-1 activity in macrophages is triggered by proinflammatory stimulation and the extracellular cancer cell ligation (“touching”) of macrophages (green bar in FIG. 2A). […] The SHP-2 inhibitor SHP099 (1 μg/ml) was used in assays. FIG. 2C depicts the inhibition of SHP-1 by TPI-1 dose-dependently recovers IFNγ/LPS-induced activation of STAT1 (p-STAT1) and Erk1/2 (p-Erk1/2) de-activated by SHP-1 (red line). FIG. 2D and FIG. 2E depict that the inhibition of SHP-1 in macrophages by TPI-1 enhances production of proinflammatory cytokines (FIG. 2D) and expression of immunogenic antigen presentation machinery (FIG. 2E) by IFNγ/LPS in a tumor milieu. […] The SHP-1 and SHP-2 inhibitors TPI-1 and SHP099, respectively, was used at 1 μg/ml in assays.

KPC pancreatic tumor [3] = experiment: Cytokines, antigen presentation and chemokines in KPC tumor after treatment; type: in vivo, murine
Text: FIGS. 7A-7F depict that the inhibition of SHP-1 unleashes proinflammatory response and antigen presentation in solid tumor upon therapies. […] Low PTP/SHP-1 activity was found in untreated, homeostatic tumor. […] Similar data were obtained by studying colorectal carcinoma MC38.

[4] = Study-1: continuous vs intermittent iSHP-1 with TLR agonists, adverse toxicity; type: in vivo, mice; details: i.p.
Description: FIGS. 11A-11E depict the impact of continuous or intermittent iShp-1 treatment on the efficacy and adverse toxicity. FIG. 11A depicts the study design. Mice with KPC pancreatic cancer were either continuously treated with TPI-1 (1× per day) or in an intermittent fashion with gapping days between two treatments (intermittent). Three doses, 1, 3 and 10 mg/kg (i.p.), were tested and TLR agonists (CpG plus PolyI:C, each 10 μg, i.p., 1× every 3 day) was given to kickstart inflammatory response. […] Tumor imaging (FIG. 11B) and volume change records (FIG. 11C) indicate similar efficacies of iShp-1 with continuous or intermittent schemes.
Tumor model: Single engraftment of KPC pancreatic adenocarcinoma
Treatments & dosing strategies: i) iSHP-1—TPI-1, 1, 3, and 10 mg/kg; i.p. either 1× per day (continuous), or following an intermittent schedule depicted in FIG. 11. ii) TLR agonists (αTLR)—CpG, PolyI:C, each 10 μg; i.p. every 3 days

[5] = tested on: MC38 colorectal carcinoma; experiment: Study-2: multi-lesion MC38 colorectal carcinoma, efficacy; type: in vivo, mice; details: intermittent iSHP-1 with αTLR, or αTLR and αPD-L1
Description: FIGS. 12A-12D depict that pulse-intermittent inhibition of SHP-1 (iSHP-1) combined with TLR agonists (αTLR) and/or anti-PD-L1 checkpoint inhibitor effectively treat multi-lesion MC38 colorectal carcinoma. FIG. 12A depicts the treatment scheme. Mice with bilateral MC38 tumors (s.c.) were treated for two days with TPI-1 and various combinations via i.p. or s.c. A 5-day intermittent period was given before the 2nd cycle of treatments to mice that had residue tumors. FIGS. 12B and 12C depict tumor control efficacies measured by tumor volume changes (FIG. 12B) and TME reprogramming, indicating increases in tumor killing immune populations while reduction of immunosuppression. FIG. 12D depicts acute adverse toxicity, measured by body weight, proteinuria, serum ALT level and splenomegaly.

[6] = tested on: KPC pancreatic ductal adenocarcinoma; experiment: Study-4: late-stage, large KPC pancreatic cancer; type: in vivo, mice
Description: (§1) FIGS. 14A-14E depict that pulse-intermittent inhibition of SHP-1 (iSHP-1) combined with TLR agonists (αTLR) treating late-stage KPC pancreatic ductal adenocarcinoma. FIG. 14A depicts the treatment scheme. Mice with large KPC tumors were treated (i.p.) consecutively for three days with TPI-I plus TLR agonists (CpG, PolyIC and R848, each 50 μg). After the initial pulse treatment, an intermittent period of 9-day was given before the 2nd cycle of treatment of two days with TPI plus TLR agonists. FIG. 14B depicts the luminescent images of mice with KPC tumor during the course of treatment. FIG. 14C depicts tumor volume changes.
Murine models: Single large pancreatic ductal adenocarcinoma (KPC-luc) C57BL6 syngeneic
Treatments: SHP-1 inhibition (iSHP-1) combined with TLR agonists (αTLR)

Study-4: adverse effects = type: in vivo, mice; details: TPI-1 with TLR agonists (each 50 μg), i.p.
Description: as §1

KPC pancreatic tumor [7] = experiment: Cytokines secreted by KPC tumor pieces treated with TLR agonists with or without TPI-1; parameters: species or system mice; details: TPI-1 0.4 μM with TLR agonists 1 μg/ml, 18 h
Description: KPC pancreatic tumor removed from mice were cut into small pieces and treated with 5 different TLR agonists (R848, 3M-852A, Motolimod, Bropirimine or Vesatolimod; 1 μg/ml each) without or with SHP-1 inhibitor TPI-1 (0.4 μM). After 18 h, cytokines secreted into the culture medium were assayed.

solid tumors = experiment: Intermittent period after TPI-1 combined therapy in tumors; type: in vivo, murine; details: TPI-1 combined with TLR agonists or RT
Text: Furthermore, these analyses of the TME immune landscape changes following TPI-1 combined therapies informed our design of the pulse-intermittent SHP-1 inhibition strategy for metastatic solid tumors. […] Along with macrophage reduction, tumor-associated SHP-1 activities also dwindled, a change that ousted the necessity of continuous TPI-1 application. This “intermittent” period lasted 3-6 days, a length dependent on TPI-1 and TLR agonists/RT dosages, as well as tumor type and stage prior to treatment. […] Consistent with these changes, the tumors after the intermittent period were reverted to growth, unless another cycle of TPI-1 combined therapy was applied, which were again effectively suppressing tumors.

[8] = with αTLR or RT, single dose TPI-1
[9] = with αTLR or RT, single dose TPI-1, 6-18 h

SMILES: O=C1C=CC(=O)C(c2cc(Cl)ccc2Cl)=C1 [TPI-1]
- PTP activity diminished in macrophages [1]: > 70%
- phagocytosis of cancer cells [2]: promotes proinflammatory-activated macrophages for phagocytosis of cancer cells
- proinflammatory cytokines in tumor (KPC pancreatic tumor [3]; with TLR agonists or RT, single dose TPI-1, 6-18 h post treatment): high expression of proinflammatory cytokines
- TGFRs and CCL2 in TME (KPC pancreatic tumor [3]; [8]): reduced
- chemokines that attract neutrophils, NK and T cells (KPC pancreatic tumor [3]; [8]): increased in the TME
- IL-10 and TGFβ in tumor (KPC pancreatic tumor [3]; [9]): abating IL-10 and TGFβ
- antigen presentation markers of intratumoral macrophages (KPC pancreatic tumor [3]; [9]): elevated cell surface markers MHC-I, MHC-II, and costimulatory molecules CD80, CD86, CD40, OX40L
- adverse effects, continuous dosing ([4]; 1× per day): incurred acute anemia, proteinuria, splenomegaly and lung inflammation
- adverse effects, intermittent dosing ([4]; intermittent): did not display or were minor
- tumor regression, combination [5]: effectively regressed multiple lesions of MC38 colorectal cancer
- anti-tumor immune cells ([6]; TPI-1 combined with αTLR, i.p.): bolstered anti-tumor immune cells such as CD8+ T cells, NK cells and neutrophils
- eradication of late-stage tumors ([6]; TPI-1 combined with αTLR, i.p.): effectively eradiated late-stage, large KPC pancreatic cancers
- intratumoral immunosuppressive populations ([6]; TPI-1 with TLR agonists, day 4): reduction of intratumoral immunosuppressive populations including macrophages (MØ) and MDSC
- adverse effects and body weight (Study-4: adverse effects): minor adverse effects and transient body weight loss followed by recovery
- cytokines secreted, with SHP-1 inhibitor (KPC pancreatic tumor [7]): induced high production of proinflammatory cytokine s while suppressing production of IL-10 and TGFβ
- length of intermittent period with reduced macrophages and tumor growth restraint (solid tumors): 3 to 6 days
